Test results taken from PubChem BioAssay (NCI).
Values joined by “and” are separate entries in the source; they are usually repeats but may differ in a detail not shown here. Equal values may be shown once.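 Interpolation was linear, between the two tested concentrations surrounding the appropriate level; five concentrations were tested over 48 hours in 96-well plates. Here, GI50 denotes the concentration required for 50% inhibition of growth. At the TGI there is no net growth.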

Tests used:
Assay in all cases: DTP human tumour cell line panel, 48 h
HCT-15 colon = tested on: HCT-15 colon
COLO 205 colon = tested on: COLO 205 colon
KM12 colon = tested on: KM12 colon
A498 renal = tested on: A498 renal
UACC-257 melanoma = tested on: UACC-257 melanoma
786-0 renal = tested on: 786-0 renal
HOP-92 NSCLC = tested on: HOP-92 NSCLC
SN12C renal = tested on: SN12C renal
SW-620 colon = tested on: SW-620 colon
IGROV1 ovarian = tested on: IGROV1 ovarian

SMILES | TGI (HCT-15 colon) | TGI (COLO 205 colon) | TGI (KM12 colon) | TGI (A498 renal) | TGI (UACC-257 melanoma) | TGI (786-0 renal) | TGI (HOP-92 NSCLC) | TGI (SN12C renal) | TGI (SW-620 colon) | TGI (IGROV1 ovarian) | GI50 (HCT-15 colon) | GI50 (COLO 205 colon) | GI50 (KM12 colon) | GI50 (A498 renal) | GI50 (UACC-257 melanoma) | GI50 (786-0 renal) | GI50 (HOP-92 NSCLC) | GI50 (SN12C renal) | GI50 (SW-620 colon) | GI50 (IGROV1 ovarian)
O=[As](O)(O)c1ccc(Cc2ccc([As](=O)(O)O)cc2)cc1 | 3.21 µM | 1.9 µM | 5.44 µM | 3.96 µM | 1.3 µM | 1.29 µM | 2.92 µM | 2.08 µM | 2.18 µM | 1.94 µM |  |  |  |  |  |  |  |  |  | 
COc1ccc(NC(=O)C(=O)C2NC(=S)NC2=O)c(OC)c1 (stereo unspecified) | > 100 µM | > 100 µM | > 100 µM | > 100 µM | > 100 µM | > 100 µM | > 100 µM | > 100 µM | > 100 µM | > 100 µM |  |  |  |  |  |  |  |  |  | 
COc1cc(C2C(C#N)=C(N)OC3=C2C(=O)c2ccccc2C3=O)cc(OC)c1OC (stereo unspecified) | 18.5 µM | 19.7 µM | > 100 µM | 11.8 µM | 13.3 µM | > 100 µM | 24.9 µM | 11.1 µM | 25.9 µM | 19.2 µM | 1.45 µM | 3.55 µM | 0.728 µM | 0.327 µM | 1.18 µM | 5.8 µM | 0.861 µM | 1.3 µM | 0.413 µM | 2.24 µM
N#Cc1nc(-c2ccccc2)oc1S(=O)(=O)N1CCOCC1 | 3.39 µM | 4.91 µM | 68 µM | 32 µM | 19 µM | 32 µM | 3.15 µM | 17.1 µM | 4.84 µM | 23.2 µM | 1.45 µM | 2.23 µM | 23.6 µM | 15.6 µM | 4.74 µM | 16 µM | 1.6 µM | 4.12 µM | 2.04 µM | 8 µM
O=C(/C=C\c1ccnc2ccccc12)c1ccc([N+](=O)[O-])cc1 | 9.2 µM | > 100 µM | 11.1 µM | > 100 µM | > 60.7 µM | > 89 µM | > 65.3 µM | > 64.2 µM | 4.79 µM | > 79.6 µM | 2.55 µM | 23.1 µM | 3 µM | 1.68 µM | 8.8 µM | 16.9 µM | 3.99 µM | 16.1 µM | 1.99 µM | 16 µM
CCc1cccc(C)c1NC(=O)NS(=O)(=O)c1ccc(C)cc1 | > 100 µM | > 100 µM | > 100 µM | > 100 µM | > 100 µM | > 100 µM | > 100 µM | > 100 µM | > 100 µM | > 100 µM |  |  |  |  |  |  |  |  |  | 
COC(=O)CCC1=C(C)c2cc3[n-]c(cc4nc(cc5[n-]c(cc1n2)c(CCC(=O)OC)c5C)C=C4C)cc3C.[Cd+2] | > 55 µM | 6.9 µM | 13.6 µM | 26.3 µM | 18.3 µM | 39.3 µM | 40 µM | 58 µM | 18.4 µM | 8.82 µM | 11.8 µM | 2.64 µM | 3.46 µM | 9.01 µM | 4.06 µM | 11.3 µM | 16.7 µM | 19.1 µM | 4.44 µM | 3.03 µM
CN(Cc1cnc2nc(N)nc(N)c2n1)c1ccc(C(=O)NC(CCC(=O)O)C(=O)O)cc1 (stereo unspecified) | > 100 µM | > 100 µM | > 100 µM | > 100 µM | > 100 µM | > 100 µM | > 100 µM | > 100 µM | > 100 µM | > 100 µM | 0.0623 µM |  | 0.0875 µM |  | 0.955 µM | 0.0428 µM |  | 0.0595 µM | 0.0456 µM | 0.809 µM
CC(=O)Oc1cccc2c1C(=O)c1c(OC(C)=O)cc(C)cc1C2=O | > 100 µM | > 100 µM | > 100 µM | > 100 µM | > 100 µM | 72.5 µM | > 100 µM | > 100 µM | > 100 µM | > 100 µM |  |  |  |  |  |  |  |  |  | 
C[Se]C(=O)CC1=C2C=C(F)C=CC2/C(=C\c2ccc(S(C)=O)cc2)C1C (stereo unspecified) | 1.21 µM | 6.36 µM | 3.25 µM | 0.192 µM | 2.42 µM | 1.71 µM | 0.417 µM | 1.34 µM | 3.25 µM | 3.17 µM | 0.0461 µM | 1.25 µM | 0.0853 µM | 0.0422 µM | 0.0875 µM | 0.207 µM | 0.165 µM | 0.0401 µM | 0.273 µM | 0.0972 µM
O=C(NNS(=O)(=O)c1cc(C(F)(F)F)cc(C(F)(F)F)c1)c1cnn(-c2ccc(Cl)cc2)c1C(F)(F)F | 37.5 µM | 34.8 µM | 39.9 µM | 29.3 µM | 43.7 µM | 42.2 µM | 31.8 µM | 34.8 µM | 38.7 µM | 38.5 µM | 16 µM | 17.4 µM | 18.5 µM | 14.1 µM | 15.2 µM | 18.1 µM | 14.8 µM | 17.2 µM | 17.7 µM | 17.4 µM
O=C1C2=C(c3ccccc31)C(c1ccccc1Cl)N1C(=O)CSC1=N2 (stereo unspecified) | > 100 µM | > 100 µM | > 100 µM | > 100 µM | > 100 µM | > 100 µM | > 100 µM | > 100 µM | > 100 µM | > 100 µM |  |  |  |  |  |  |  |  |  | 
O=c1[nH]c(-c2ccc(C(F)(F)F)cc2)nc2c1CSCC2 | > 100 µM | > 100 µM | > 100 µM | 97.3 µM | > 100 µM | > 100 µM | 46.3 µM | > 100 µM | > 100 µM | > 100 µM | > 100 µM | > 100 µM | > 100 µM | 22.9 µM | > 65.2 µM | 35.3 µM | 17.1 µM | > 100 µM | > 100 µM | 43.1 µM
COc1ccccc1-n1c(SCc2cc(OC)c(OC)c(OC)c2)nc2ccc(Cl)cc2c1=O | > 100 µM | > 100 µM | > 100 µM | 48.2 µM | > 100 µM | > 100 µM | 99.6 µM | > 100 µM | > 100 µM | > 100 µM | 1.46 µM | 3.03 µM | 1.46 µM | 1.76 µM | 5.7 µM | 4.46 µM | 2.78 µM | 7.81 µM | 2.59 µM | 10.9 µM
COc1ccc(C(O)c2cc3c(N)c(C(=O)Nc4cccc(Br)c4)sc3nc2C)cc1 (stereo unspecified) | > 43 µM | 0.773 µM |  | 0.231 µM | > 50.4 µM | > 39.4 µM | 21.3 µM | > 31.9 µM | > 100 µM | > 100 µM | 0.121 µM | 0.127 µM | 0.117 µM | 0.0536 µM | 6.4 µM | 0.225 µM | 0.554 µM | 0.21 µM | 0.126 µM | 0.231 µM
Oc1ccccc1-n1c(-c2ccccc2)ccc1-c1ccccc1 | 28.7 µM | 56.6 µM | 19.3 µM | 35.8 µM | 27.3 µM | 26.5 µM | 8.54 µM | 16 µM | 20.2 µM | 19.4 µM | 5.57 µM | 15.3 µM | 4.05 µM | 7.49 µM | 4.2 µM | 13.2 µM | 1.94 µM | 3.62 µM | 5.49 µM | 4.1 µM
C=C1C(C)C2C(Cc3ccccc3)NC(=O)C23C(OC(C)=O)/C=C/C(C)(O)CC(C)C/C=C/C3C1O (stereo unspecified) | > 100 µM | > 100 µM | > 100 µM | 1.15 µM | 86.5 µM | > 100 µM | 1.01 µM | > 100 µM | > 100 µM | 48.2 µM |  |  |  |  |  |  |  |  |  | 
CCSC1=CC(=O)c2ccccc2C1=O | 31.4 µM | 5.22 µM | 25.4 µM | 41.2 µM | 3.89 µM | 22.3 µM | 2.66 µM | 28.6 µM | 3.42 µM | 17.1 µM | 13.9 µM | 2.33 µM | 11 µM | 16.4 µM | 1.6 µM | 9.25 µM | 1.32 µM | 14.5 µM | 1.56 µM | 4.86 µM
CC1=C2C(c3ccccc3)(c3ccccc3)C3C=CC2(C=N3)N(C(=O)NC2CCCCC2)C1=O (stereo unspecified) | 30.4 µM | 29.3 µM | 32.1 µM | 31.6 µM | 30.9 µM | 29.4 µM | 27.4 µM | 31.7 µM | 31.9 µM | 35.7 µM |  |  |  |  |  |  |  |  |  | 
CN(C)c1ccc(/C=C/c2ccnc3ccccc23)cc1 | > 100 µM | > 100 µM and 16 µM | > 100 µM and 33.7 µM | > 100 µM and 24.8 µM | > 100 µM and 71.2 µM | > 100 µM and 21.6 µM | > 100 µM and 10.8 µM | > 100 µM | > 100 µM | > 100 µM | 3.76 µM | 3.37 µM | 3.11 µM | 4.03 µM | 22.2 µM | 3.77 µM | 0.651 µM | 3.95 µM | 2.96 µM | 5.61 µM
COC1=C(OC)CCC(/C(C#N)=C/c2ccc(OC)c(OC)c2)=C1 | > 100 µM | > 100 µM | > 100 µM | > 100 µM | > 100 µM | > 100 µM | > 100 µM | > 100 µM | > 100 µM | > 100 µM |  |  |  |  |  |  |  |  |  | 
COc1ccc([C@H]2O[C@@H](CO)C[C@]2(O)c2ccc(OC)cc2)cc1 | > 100 µM | > 100 µM | > 100 µM | > 100 µM | > 100 µM | > 100 µM | > 100 µM | > 100 µM | > 100 µM | > 100 µM | > 100 µM | > 100 µM | > 100 µM | > 100 µM | > 100 µM | > 100 µM | 95.6 µM | > 100 µM | > 100 µM | > 100 µM
